Results from ChEMBL document CHEMBL1201862, “PubChem BioAssay data set” (2004).
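Test compounds were applied to cells in 96-well plates for 48 hours at 5 doses. GI50 marks 50% less growth.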 Activity calls are given as the source filed them. Rule as the data show it: active = GI50 up to about 1.1 µM and inactive = higher.

What was measured:
Assay in all cases: growth of human tumour cells (NCI), 48 h
ACHN = tested on: ACHN
COLO 205 = tested on: COLO 205
HCT-116 = tested on: HCT-116
K562 = tested on: K562
KM12 = tested on: KM12
LOX IMVI = tested on: LOX IMVI
Malme-3M = tested on: Malme-3M
NCI-H23 = tested on: NCI-H23
OVCAR-3 = tested on: OVCAR-3
SK-MEL-28 = tested on: SK-MEL-28
SK-MEL-5 = tested on: SK-MEL-5
SNB-19 = tested on: SNB-19
SR = tested on: SR
TK-10 = tested on: TK-10
U-251 = tested on: U-251

Measured: GI50

COC1OC(C)C2OC(C)(C)OC2C1OC(C)=O (configuration not stated)
inactive: ACHN > 100 µM | COLO 205 > 100 µM | HCT-116 > 100 µM | K562 > 100 µM | KM12 > 100 µM | LOX IMVI > 100 µM | Malme-3M > 100 µM | NCI-H23 > 100 µM | OVCAR-3 > 100 µM | SK-MEL-28 > 100 µM | SK-MEL-5 > 100 µM | SNB-19 > 100 µM | SR > 100 µM | TK-10 > 100 µM | U-251 > 100 µM

Cc1cccc(/N=C/c2ccc(N(CCC#N)S(=O)(=O)c3ccccc3)cc2C)c1
inactive: ACHN 88.3 µM | COLO 205 > 100 µM | HCT-116 > 100 µM | K562 34.5 µM | KM12 > 100 µM | LOX IMVI 17.6 µM | Malme-3M > 100 µM | NCI-H23 > 100 µM | OVCAR-3 > 100 µM | SK-MEL-28 > 100 µM | SK-MEL-5 > 100 µM | SNB-19 > 100 µM | TK-10 > 100 µM | U-251 > 100 µM

Cc1ccc(S(=O)(=O)C(C#N)c2nc3ccccc3nc2-n2cccn2)cc1 (configuration not stated)
inactive: ACHN > 100 µM | COLO 205 > 100 µM | HCT-116 > 100 µM | K562 > 100 µM | KM12 > 100 µM | Malme-3M > 100 µM | NCI-H23 > 100 µM | OVCAR-3 > 100 µM | SK-MEL-28 > 100 µM | SNB-19 > 100 µM | TK-10 > 100 µM | U-251 > 100 µM

CC(=O)OC[C@@H]1[C@H]2CC(=O)O[C@H]2C[C@H]1OC(C)=O
inactive: ACHN > 100 µM | COLO 205 24.7 µM | HCT-116 94 µM | KM12 > 100 µM | LOX IMVI > 100 µM | Malme-3M > 100 µM | OVCAR-3 > 100 µM | SK-MEL-28 > 100 µM | SK-MEL-5 > 100 µM | SNB-19 > 100 µM | SR > 100 µM | TK-10 > 100 µM | U-251 > 100 µM

C=C1C(=O)OC2C=C(CCC(C)=O)C(C)C(OC(C)=O)CC12 (configuration not stated)
inactive: ACHN 6.84 µM | HCT-116 5.19 µM | K562 3.86 µM | KM12 16.1 µM | LOX IMVI 1.61 µM | Malme-3M 11.2 µM | OVCAR-3 12.7 µM | SK-MEL-28 8.26 µM | SNB-19 17.6 µM | SR 11.8 µM | TK-10 12 µM | U-251 17.1 µM

Cc1ccc(S(=O)(=O)N/N=C(\c2nc3ccc([N+](=O)[O-])cc3nc2O)C(O)c2ccccc2Cl)cc1 (configuration not stated)
inactive: ACHN > 100 µM | COLO 205 > 100 µM | HCT-116 > 100 µM | K562 28.2 µM | KM12 93.8 µM | LOX IMVI > 100 µM | Malme-3M > 100 µM | NCI-H23 > 100 µM | OVCAR-3 > 100 µM | SK-MEL-28 > 100 µM | SK-MEL-5 55.3 µM | SNB-19 > 100 µM | SR > 100 µM | TK-10 > 100 µM | U-251 > 100 µM

O=C(CC1(O)C(=O)Nc2c(Cl)cc(Cl)cc21)c1ccc(F)cc1 (configuration not stated)
inactive: ACHN 35.9 µM | COLO 205 19 µM | HCT-116 35.4 µM | KM12 37.2 µM | LOX IMVI 24.7 µM | Malme-3M 41.9 µM | NCI-H23 28.5 µM | OVCAR-3 37.6 µM | SK-MEL-28 71.6 µM | SNB-19 59.3 µM | SR 29.2 µM | TK-10 > 100 µM | U-251 31.3 µM

Cc1cc(C)nc(NS(=O)(=O)c2ccc(NC(=O)c3cccc4cc5ccccc5nc34)cc2)n1
inactive: ACHN 44.3 µM | COLO 205 39.4 µM | HCT-116 17.2 µM | K562 24.5 µM | KM12 24.5 µM | LOX IMVI 22.9 µM | Malme-3M 23.4 µM | NCI-H23 25.9 µM | OVCAR-3 24.8 µM | SK-MEL-28 31.2 µM | SK-MEL-5 25.5 µM | SNB-19 25.7 µM | TK-10 50.2 µM | U-251 30.6 µM

COC(=O)CCSC(=O)Nc1ccccc1Cl
inactive: ACHN > 100 µM | COLO 205 > 100 µM | HCT-116 > 100 µM | K562 > 100 µM | KM12 > 100 µM | LOX IMVI > 100 µM | NCI-H23 > 100 µM | OVCAR-3 > 100 µM | SK-MEL-28 > 100 µM | SNB-19 > 100 µM | SR > 100 µM | TK-10 > 100 µM | U-251 > 100 µM

Cc1ccc(/C=N/NS(=O)(=O)c2ccccc2)cc1
inactive: ACHN > 100 µM | COLO 205 > 100 µM | HCT-116 > 100 µM | K562 > 100 µM | KM12 > 100 µM | LOX IMVI > 100 µM | Malme-3M > 100 µM | NCI-H23 > 100 µM | OVCAR-3 > 100 µM | SK-MEL-28 > 100 µM | SK-MEL-5 > 100 µM | SR > 100 µM | TK-10 > 100 µM | U-251 > 100 µM

CC1(C)C(O)OC(O)C1(C)C (configuration not stated)
inactive: ACHN > 100 µM | COLO 205 > 100 µM | HCT-116 33.9 µM | K562 57.9 µM | KM12 > 100 µM | LOX IMVI 46.9 µM | Malme-3M > 100 µM | OVCAR-3 30.9 µM | SK-MEL-28 43.4 µM | SK-MEL-5 32.8 µM | SNB-19 66.8 µM | TK-10 > 100 µM | U-251 > 100 µM

COC1(C)C(=O)N2C1N(C(=O)OCc1ccccc1)CC2(C)C (configuration not stated)
inactive: ACHN > 100 µM | COLO 205 > 100 µM | HCT-116 > 100 µM | K562 > 100 µM | LOX IMVI > 100 µM | Malme-3M > 100 µM | NCI-H23 > 100 µM | OVCAR-3 > 100 µM | SK-MEL-28 > 100 µM | SK-MEL-5 > 100 µM | SNB-19 > 100 µM | SR > 100 µM | TK-10 > 100 µM | U-251 > 100 µM

O=C(N/C(=C\c1cccc([N+](=O)[O-])c1)c1nc2c3c(ccc2[nH]1)C(=O)c1ccccc1C3=O)c1ccccc1
inactive: ACHN 16.6 µM | HCT-116 31.6 µM | KM12 14.5 µM | Malme-3M 40.7 µM | NCI-H23 30.3 µM | OVCAR-3 49.1 µM | SK-MEL-28 19.9 µM | SK-MEL-5 31.2 µM | SNB-19 41.4 µM | SR 5.86 µM | TK-10 20.2 µM | U-251 34.8 µM

COc1ccc(C(c2ccc(C(C)C)cc(OC)c2=O)c2ccc(C(C)C)cc(OC)c2=O)cc1
inactive: COLO 205 17.2 µM | HCT-116 11.1 µM | K562 10.7 µM | KM12 13.5 µM | LOX IMVI 15.3 µM | Malme-3M 16.5 µM | NCI-H23 16.3 µM | OVCAR-3 13.2 µM | SK-MEL-5 14.3 µM | SNB-19 15.9 µM | SR 10.4 µM | TK-10 19.6 µM | U-251 13.7 µM
